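48-hour exposure; five concentrations; linearly interpolated endpoints. The concentration for 50% growth inhibition is given as GI50.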 The source made the active and inactive calls. Cut-off read from the data, not from the text of the source: active = GI50 up to about 1.1 µM and inactive = higher.
Key:
Assay in all cases: inhibition of tumour cell growth, NCI panel, 48 h
HOP-62 = test system: HOP-62
UACC-62 = test system: UACC-62
HOP-92 = test system: HOP-92
NCI-H226 = test system: NCI-H226
LOX IMVI = test system: LOX IMVI
RPMI-8226 = test system: RPMI-8226
SN12C = test system: SN12C
OVCAR-5 = test system: OVCAR-5
SW-620 = test system: SW-620
HT-29 = test system: HT-29
NCI-H522 = test system: NCI-H522
BT-549 = test system: BT-549
UACC-257 = test system: UACC-257
EKVX = test system: EKVX
OVCAR-3 = test system: OVCAR-3
Hs-578T = test system: Hs-578T
CCRF-CEM = test system: CCRF-CEM
SF-268 = test system: SF-268
M14 = test system: M14
SK-OV-3 = test system: SK-OV-3

Measured: GI50

COc1ccc(N2CN3OC(=O)N(c4ccc(OC)cc4)[C@@]3(c3ccccc3)C2)cc1
inactive: HOP-62 32.6 µM | UACC-62 13.6 µM | HOP-92 15.9 µM | NCI-H226 47.6 µM | LOX IMVI 23 µM | RPMI-8226 18.7 µM | SN12C 31.6 µM | OVCAR-5 54.6 µM | SW-620 6.04 µM | HT-29 6.49 µM | NCI-H522 10.5 µM | BT-549 21.5 µM | UACC-257 26.5 µM | EKVX 23.2 µM | OVCAR-3 13.1 µM | Hs-578T 37.6 µM | CCRF-CEM 6 µM | SF-268 73.6 µM | M14 34.4 µM | SK-OV-3 20.8 µM

CC1OC(=O)C2CC3CCCCC3C(/C=C/C3CCCC(C)N3C)C12 (stereo not given)
inactive: HOP-62 > 100 µM | UACC-62 > 100 µM | HOP-92 > 100 µM | NCI-H226 > 100 µM | LOX IMVI > 100 µM | RPMI-8226 > 100 µM | SN12C > 100 µM | OVCAR-5 > 100 µM | SW-620 > 100 µM | HT-29 > 100 µM | NCI-H522 > 100 µM | BT-549 > 100 µM | UACC-257 > 100 µM | EKVX > 100 µM | OVCAR-3 > 100 µM | Hs-578T > 100 µM | CCRF-CEM > 100 µM | SF-268 > 100 µM | M14 > 100 µM | SK-OV-3 > 100 µM

Clc1ccc(Cl)c(SCCCN2CCNCC2)c1
inactive: HOP-62 18 µM | UACC-62 2.61 µM | HOP-92 15 µM | NCI-H226 18.3 µM | LOX IMVI 14.9 µM | RPMI-8226 19.8 µM | SN12C 19.2 µM | OVCAR-5 15.5 µM | SW-620 22.3 µM | HT-29 14.6 µM | NCI-H522 16.3 µM | BT-549 17.1 µM | UACC-257 11.7 µM | EKVX 16.9 µM | OVCAR-3 19.2 µM | Hs-578T 16.1 µM | CCRF-CEM 19.9 µM | SF-268 16.6 µM | M14 17.3 µM | SK-OV-3 15.1 µM

N=C(N)NS(=O)(=O)c1ccc(NC(=O)c2ccc3nc4ccccc4c(Nc4ccc(S(N)(=O)=O)cc4)c3c2)cc1
inactive: HOP-62 > 100 µM | UACC-62 > 100 µM | HOP-92 > 100 µM | NCI-H226 > 100 µM | LOX IMVI > 100 µM | RPMI-8226 > 100 µM | SN12C > 100 µM | OVCAR-5 > 100 µM | SW-620 > 100 µM | HT-29 > 100 µM | NCI-H522 > 100 µM | BT-549 > 100 µM | UACC-257 > 100 µM | EKVX > 100 µM | OVCAR-3 > 100 µM | Hs-578T > 100 µM | CCRF-CEM > 100 µM | SF-268 > 100 µM | M14 > 100 µM | SK-OV-3 > 100 µM
